Entries after “also recorded” stand apart in the source; their conditions may differ.
Experiments:
[1] = tested on: EGF-induced mitogenesis in EC25 cells (NIH3T3 cells transfected with the EGF receptor gene); assay: EGF mitogenic assay (3H-thymidine incorporation), EGF stimulation; type: cell-based, human
From the text: The assay to determine a compound's selectivity compares the level of inhibition of the targeted activity (EGF stimulation of cell growth) with the inhibition of insulin stimulated cell growth.
(§1) An in vitro bioassay, called the EGF mitogenic assay, was used to aid in the identification of antagonists of EGF dependent cell proliferation. The mitogenic response due to EGF is quantified by measuring the incorporation of ^3 H-thymidine into NIH3T3 cells (or "EC25 cells") that have been transfected with the EGF receptor gene. Stimulation of these cells with insulin is used as a "nonspecific" mitogen control. Samples were preincubated with the EC25 cells for one hour before the addition of the mitogen, then further incubated for 16 hours, and mitogenic stimulation assessed by a one hour incorporation of ^3 H-thymidine. The development of the EC25 cell line, and the EGF mitogenic assay in which it is used, is explained in greater detail in Velu, T. J. et al., "Epidermal Growth Factor-Dependent Transformation by a Human EGF Receptor Proto-Oncogene, " Science 238:1408-10 (1987).
(§2) The concentration at which control insulin stimulation is inhibited 50% by the test sample (IC50(insutin)) was calculated as was the same value for EGF (IC50(EGF)). These values were then used to calculate a specificity ratio which is IC50(insulin)/ IC50(EGF).
These activity criteria help determine which inhibitors are specific for the EGF signalling pathway.

[2] = tested on: insulin stimulation of EC25 cells; assay: EGF mitogenic assay (3H-thymidine incorporation), insulin stimulation as nonspecific mitogen control; type: cell-based; conditions: pure sample
Experimental: as §1, §2

EGF receptor = assay: competition with binding of biotinylated EGF to A431 cells; design: species or system human; conditions: up to 500 μg/ml
Experimental: Experimental Test 4. Presently, the mechanism of action of naamidine A for inhibition of the EGF signalling pathway is unknown. […] This assay measured the ability of naamidine A to compete with the binding of biotinylated EGF to the EGF receptor, which is highly over expressed in A431 human squamous cell carcinoma cells.
In the assay represented in FIG. 3, the A431 cells were incubated in the presence of either the EGF standard or naamidine A plus biotinylated EGF for one hour and the degree of inhibition of biotinylated EGF binding to the EGF receptor was quantified using a peroxidase-linked anti-biotin antibody. The solid circles (.circle-solid.) in FIG. 3 represent the level of binding of EGF to cell receptors when the cells are subjected to various levels of naamidine A. The open circles (.largecircle.) represent the level of binding of EGF to cell receptors when the cells are subjected to various levels of EGF, which is used as a positive control.

c-src tyrosine kinase = c-src tyrosine kinase (Homo sapiens, UniProt P12931); assay: c-src tyrosine kinase assay (phosphorylation of RCM lysozyme); type: biochemical; conditions: isolated c-src, RCM lysozyme substrate, 30 minutes
Experimental: Experimental Test 5. […] In this assay, phosphorylation of the substrate RCM (reduced, carboxyamidomethylated and maleylated) lysozyme by c-src is quantified using a peroxidase-linked anti-phosphotyrosine antibody to determine the activity of this kinase.
The sample of naamidine A was incubated with the substrate RCM […], c-src enzyme, and ATP for 30 minutes, after which time the reaction was terminated and tyrosine phosphorylation was assessed using a peroxidase-linked antiphosphotyrosine antibody.

[3] = tested on: human squamous cell carcinoma (A431); assay: first in vivo test, A431 xenograft in athymic mice, assessed 15 days after implantation (Experimental Test 7); design: species or system human tumor in athymic mice; conditions: for % Inhibition of tumor growth: q1d×5;1, 15 days; for toxicity: 100 mg/kg
Experimental: Tumor growth was assessed by measuring the change in tumor size over a fifteen day period. Although naamidine A inhibited tumor growth, the inhibition was a modest 37%. Therefore, a second evaluation was carried out using a different schedule of treatment and evaluation.
J. Oncology, 1:293-298 (1992).
Tumor growth was calculated as FTS/ITS. […] Experimental Test 7.
The effect of naamidine A on the tumor was assessed 15 days after tumor implantation and there were six mice per treatment group.

[4] = tested on: human squamous cell carcinoma (A431); assay: second in vivo test, A431 xenograft in athymic mice, assessed 7 days after implantation (Experimental Test 8); conditions: for % Inhibition of tumor growth: q1d×5;1, 7 days; for deaths: q1d×5;1, six mice per group
Experimental: In this test, the mice were treated with varying dosages of naamidine A for five days after implantation of the carcinoma. The tumors were then evaluated for growth activity seven days after implantation, as determined by the change in tumor size.
The model system used for these in vivo studies was a human squamous cell carcinoma (A431) that over expresses the EGF receptor, which was implanted into athymic mice.
According to Robinson et al., the A431 cell line was adapted to grow in female athymic mice by s.c. inoculation of 10^7 cultured cells into the axillary region. Tumors were passaged in female athymic mice by sterile dissection of solid tumors and s.c. implantation of tumor fragments into the axillary region.
Drug effects were calculated as the mean % inhibition the drug treatment produced on tumor growth when compared to control. Inhibition of >80% of tumor growth was considered a working criteria for "active".
In this second in vivo test, the length of time for tumor growth was shortened to seven days to more closely coincide with the time of drug treatment. Two groups of twelve mice each were treated with the standard antibody (MA225), while there were six mice per group treated with varying doses of naamidine A.
The tumor was exposed to the test agent (naamidine A) once a day for 5 days (q1 d×5; 1), which was nearly the entire length of the growth period of 7 days. During this time, the tumor would normally be expected to double about 1.5 times instead of 3 times for a 15 day period.
Under these conditions, doses ranging from 0.78 mg/kg to 50 mg/kg were given using the same dosing schedule as with the first experiment.

[5] = 25 mg/kg, listed as Naamidine A

Experimental for HCT116 colon cells: In the XTT assay, cells are plated at 4000 cells/well in 96 well microtiter plates; 24 hours later the test drugs are added and serially diluted. The cells are incubated at 37° C. for 72 hours, at which time the tetrazolium dye, XTT, is added. A dehydrogenase enzyme in live cells reduces the XTT to a form that absorbs light at 450 nm which can be quantitated spectrophotometrically. The greater the absorbance the greater the number of live cells. The results are expressed as an IC50 which is the drug concentration required to inhibit cell proliferation (i.e., absorbance at 450 nm) to 50% of that of untreated control cells.

naamidine A
activity in the EGF assay (in words) ([1]; EC25 cells): very good activity
IC50(EGF) ([1]; EC25 cells, EGF stimulation, pure sample): 4.8 µg/mL
IC50(insulin)/IC50(EGF) ratio ([1]; EC25 cells, specificity ratio): 22
specificity for EGF versus insulin stimulated response (in words) ([1]; tritiated thymidine incorporation after EGF or insulin stimulation): less potent in inhibiting insulin stimulated cell proliferation compared to EGF stimulated growth; also recorded: more specific for the EGF mediated mitogenic response than for the insulin mediated mitogenic response
selectivity in inhibiting EGF dependent growth relative to insulin dependent growth ([1]; tritiated thymidine incorporation, preliminary testing): about 22 times
IC50(insulin) [2]: 105.6 µg/mL
effect on binding of EGF to its receptor (EGF receptor): does not appear to affect the binding of EGF to its corresponding receptor cite; also recorded: did not appear to effect the binding of EGF to receptor sites
inhibition of c-src tyrosine kinase activity (in words) (c-src tyrosine kinase): lack of c-src tyrosine kinase activity; also recorded: not inhibit the activity of the isolated c-src tyrosine kinase; also recorded: no significant inhibition of c-src tyrosine kinase activity
% Inhibition of tumor growth ([3]; 1.6 mg/kg): 36.6%
% Inhibition of tumor growth ([3]; 6.25 mg/kg): 32.2%
% Inhibition of tumor growth ([3]; 25 mg/kg): 37%
% Inhibition of tumor growth [3, 5]: 37.1%
net reduction in tumor cell growth ([3]; first in vivo test, 15 days, includes period of regrowth): 30-40%
toxicity ([3]; mice, q1d×5;1): toxic to the mice
toxicity ([3]; mice, q1d×5;1, listed as Naamidine A): toxic (multiple deaths)
maximally tolerated dose ([3]; mice, q1d×5;1, 21600 min): 25 mg/kg
general in vitro cytotoxicity (in words) (HCT116 colon cells): relatively low general in vitro cytotoxicity
IC50 (HCT116 colon cells; HCT116, XTT, 72 hours): 31 µg/mL
% Inhibition of tumor growth ([4]; 1.56 mg/kg): 47.9%
% Inhibition of tumor growth ([4]; 3.13 mg/kg): 35%
% Inhibition of tumor growth ([4]; 6.25 mg/kg): -7.5%
% Inhibition of tumor growth ([4]; 12.5 mg/kg): 52%
% Inhibition of tumor growth ([4]; 25 mg/kg): at least 85%
% Inhibition of tumor growth [4, 5]: 87.4%
% Inhibition of tumor growth ([4]; 50 mg/kg): 96.4%
deaths (in words) ([4]; mice, 25 mg/kg): death of one mouse
deaths ([4]; mice, 25 mg/kg): 1 death
toxicity (in words) ([4]; mice, 50 mg/kg): toxic to many of the mice
deaths ([4]; mice, 50 mg/kg): 2 deaths
maximal tolerated dose ([4]; mice, q1d×5;1, 10080 min): 25 mg/kg
LD-10 (dose at which 10% of the mice died) ([4]; mice, q1d×5;1, roughly estimated from Experimental Test 8): about 25 mg/kg
Tumor growth inhibition ([4]; somewhat toxic doses, 7 days, best results at about 25 mg/kg): about 85%
